Measured values taken from article PMC7062757 (2020).

How the values were obtained:
[1] = tested on: Mango II (RNA, aptamer) GGCACGUACGAAGGAGAGGAGAGGAAGAGGAGAGUACGUGC; experiment: fluorescence titration, Hill fit; conditions: 140 mM KCl, 1 mM MgCl2; 10 mM sodium phosphate, pH 7.2, 22 °C; 40 nM RNA; apparent; per site
[2] = tested on: M2 x3 array (5 nt) (Mango II x3, M2x3) (RNA, aptamer) GGCACGUACGAAGGAGAGGAGAGGAAGAGGAGAGUACGUGCUUUUUGGACAUGCCGAAGGAGAGGAGAGGAAGAGGAGAGGCAUGUCCUUUUUGGGUGCAUCGAAGGAGAGGAGAGGAAGAGGAGAGAUGCACCC; experiment: fluorescence titration, Hill fit; conditions: 140 mM KCl, 1 mM MgCl2; 10 mM sodium phosphate, pH 7.2, 22 °C; 40 nM RNA; apparent; per site

CN1C=CC(=Cc2sc3ccccc3[n+]2CC(=O)NCCOCCOCCOCCNC(=O)CCCC[C@@H]2SC[C@@H]3NC(=O)N[C@@H]32)c2ccccc21
Kd,app [1]: 0.03 ± 0.004 µM | Kd,app [2]: 0.08 ± 0.006 µM
